Results as given in patent US20210227825A1, “SAFENER” (Nippon Soda Co., Ltd., priority 2018, published 2021).

Tested on: rice seedling (variety: Koshihikari)
Test: Rice hydroponics test tube test, number of new roots after 5 days (Example 5, Comparative Examples 1 and 2)
Assay type: in vivo
Conditions: for safener effect on inhibition of new root development by pyrazosulfuron-ethyl: 0.01 mg pyrazosulfuron-ethyl in 1 L hydroponics solution; for Condition of new roots in test tube of safener composition: 0.01 mg pyrazosulfuron-ethyl plus the safener (0.1 ml safener (A) or 0.01 mg comparative) in 1 L hydroponics solution
Protocol: One rice seedling (variety: Koshihikari) in the two-leaf stage was transplanted into the test tube. This was placed in an artificial meteorological instrument set to 16 hours (25° C.) in the light period and 8 hours (20° C.) in the dark period. After a lapse of 5 days, the number of new roots was counted. This test was performed a total of 6 times. An average value was calculated from the measured values for 6 times.
A comparative safener composition (1) was obtained by the same method as that for the safener composition (2), with the exception that 0.1 ml of the safener (A) of Example 5 was replaced with a solution obtained by dissolving 0.01 mg of α-naphthylacetamide in 10 μl of DMSO.
A comparative safener composition (2) was obtained by the same method as that for the safener composition (2), with the exception that 0.1 ml of the safener (A) of Example 5 was replaced with a solution obtained by dissolving 0.01 mg of indole butyric acid in 10 μl of DMSO.

Compound | safener effect on inhibition of new root development by pyrazosulfuron-ethyl | Condition of new roots in test tube of safener composition [roots]
indole butyric acid | no safener effect | 5.0
NC(=O)Cc1cccc2ccccc12 [α-Naphthylacetamide, α-naphthylacetamide] | no safener effect | 3.3
